Columns and labels:
Format in all cases: in vivo
[1] = system: Scirpus juncoides; assay: Test Example 1: herbicidal activity, application before weed generation in submerged conditions; conditions: Application herbicide amount 320 g/ha; Seventeenth Table
Summary of the method: (§1)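 Alluvial soil in Wagner pots flooded to 4 cm water depth; weed seeds sown and 2.5 leaf stage rice seedlings transplanted. Emulsion diluted in water applied to water surface on sowing day at stated g/ha. Greenhouse 25° C. to 30° C.; effects scored 0–5 by herbicidal ratio after three weeks.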

[2] = system: Monochoria vaginalis; assay: as above; conditions: Application herbicide amount 320 g/ha; Seventeenth Table
Summary of the method: as §1

[3] = system: Echinochloa oryzacola Vasing.; assay: as above; conditions: Application herbicide amount 320 g/ha; Seventeenth Table
Summary of the method: as §1

[4] = system: Triticum aestivum; assay: Test Example 4: effect on crop by application to foliage (diluvial soil, plastic box); conditions: application to foliage, application herbicide amount 320 g/ha
Summary of the method: (§2)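 Scores run from 0 (herbicidal ratio ≤5%) to 5 (≥90%, almost fully withered) and were assessed three weeks after foliar spraying. Seedlings had been raised for 14 days at 25-30° C in sterilized diluvial soil before treatment, with the emulsion diluted in water to the stated g/ha dose.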

[5] = system: Glycine max; assay: as above; conditions: application to foliage, application herbicide amount 320 g/ha
Summary of the method: as §2

[6] = system: directly sowed Oryza sativa; assay: as above; conditions: application to foliage, application herbicide amount 320 g/ha
Summary of the method: as §2

[7] = system: Beta vulgaris ssp. vulgaris; assay: as above; conditions: application to foliage, application herbicide amount 320 g/ha
Summary of the method: as §2

[8] = system: Brassica campestris L.; assay: as above; conditions: application to foliage, application herbicide amount 320 g/ha
Summary of the method: as §2

[9] = system: Zea mays; assay: as above; conditions: application to foliage, application herbicide amount 320 g/ha
Summary of the method: as §2

[10] = system: transplanted Oryza sativa; assay: Test Example 1: effect on crop, application before weed generation in submerged conditions; conditions: Application herbicide amount 320 g/ha; Seventeenth Table
Summary of the method: as §1

`CSc1nnc2c(C(=O)Nc3nnc(C)o3)ccc(C(F)(F)F)n12` [1-018, N-(5-Methyl-1,3,4-oxadiazol-2-yl)-3-(methylthio)-5-(trifluoromethyl)-[1,2,4]triazol o[4,3-a]pyridine-8-carboxamide] was tested, and the “B: Scirpus juncoides (herbicidal effect grade)” value (“B: Scirpus juncoides” below) [1] was 3 (Herbicidal ratio of 40% or more and less than 70%), the “C: Monochoria vaginalis (herbicidal effect grade)” value (from here on “C: Monochoria vaginalis”) [2] was 5 (Herbicidal ratio of 90% or more (almost completely withered)) and the “A: Echinochloa oryzicola Vasing. (herbicidal effect grade)” value [3] was 1 (Herbicidal ratio of 5% or more and less than 20%). The “e (Triticum aestivum) effect on crop” value [4] was 0 (Herbicidal ratio of 5% or less (almost no effect)), the “c (Glycine max) effect on crop” value [5] was 0 (Herbicidal ratio of 5% or less (almost no effect)) and the “d (directly sowed Oryza sativa) effect on crop” value [6] was 0 (Herbicidal ratio of 5% or less (almost no effect)). The “f (Beta vulgaris ssp. vulgaris) effect on crop” value [7] was 1 (Herbicidal ratio of 5% or more and less than 20%), the “g (Brassica campestris L.) effect on crop” value [8] was 0 (Herbicidal ratio of 5% or less (almost no effect)) and the “b (Zea mays) effect on crop” value [9] was 0 (Herbicidal ratio of 5% or less (almost no effect)). For the same molecule, the “a: transplanted Oryza sativa (effect on crop grade)” value (from here on “a: transplanted Oryza sativa”) [10] was 0 (Herbicidal ratio of 5% or less (almost no effect)).

With `COCCOCc1nnc2c(C(=O)Nc3nnc(C)o3)ccc(C(F)(F)F)n12` [1-019] the “B: Scirpus juncoides” value [1] was 3 (Herbicidal ratio of 40% or more and less than 70%), the “C: Monochoria vaginalis” value [2] was 4 (Herbicidal ratio of 70% or more and less than 90%) and the “A: Echinochloa oryzicola Vasing. (herbicidal effect grade)” value [3] was 5 (Herbicidal ratio of 90% or more (almost completely withered)). For the same molecule, the “e (Triticum aestivum) effect on crop” value [4] was 3 (Herbicidal ratio of 40% or more and less than 70%), the “c (Glycine max) effect on crop” value [5] was 2 (Herbicidal ratio of 20% or more and less than 40%) and the “d (directly sowed Oryza sativa) effect on crop” value [6] was 4 (Herbicidal ratio of 70% or more and less than 90%). For the same molecule, the “f (Beta vulgaris ssp. vulgaris) effect on crop” value [7] was 5 (Herbicidal ratio of 90% or more (almost completely withered)), the “g (Brassica campestris L.) effect on crop” value [8] was 4 (Herbicidal ratio of 70% or more and less than 90%) and the “b (Zea mays) effect on crop” value [9] was 2 (Herbicidal ratio of 20% or more and less than 40%). For the same molecule, the “a: transplanted Oryza sativa” value [10] was 2 (Herbicidal ratio of 20% or more and less than 40%).

`Cc1nnc(NC(=O)c2ccc(C(F)(F)F)n3c(COCC(F)(F)F)nnc23)o1` [1-020] was tested, and the “B: Scirpus juncoides” value [1] was 3 (Herbicidal ratio of 40% or more and less than 70%), the “C: Monochoria vaginalis” value [2] was 2 (Herbicidal ratio of 20% or more and less than 40%) and the “A: Echinochloa oryzicola Vasing. (herbicidal effect grade)” value [3] was 4 (Herbicidal ratio of 70% or more and less than 90%). The “e (Triticum aestivum) effect on crop” value [4] was 1 (Herbicidal ratio of 5% or more and less than 20%), the “c (Glycine max) effect on crop” value [5] was 1 (Herbicidal ratio of 5% or more and less than 20%) and the “d (directly sowed Oryza sativa) effect on crop” value [6] was 0 (Herbicidal ratio of 5% or less (almost no effect)). The “f (Beta vulgaris ssp. vulgaris) effect on crop” value [7] was 5 (Herbicidal ratio of 90% or more (almost completely withered)), the “g (Brassica campestris L.) effect on crop” value [8] was 3 (Herbicidal ratio of 40% or more and less than 70%) and the “b (Zea mays) effect on crop” value [9] was 0 (Herbicidal ratio of 5% or less (almost no effect)). The “a: transplanted Oryza sativa” value [10] was 0 (Herbicidal ratio of 5% or less (almost no effect)).

For `CCC(C)c1nnc2c(C(=O)Nc3nnc(C)o3)ccc(C(F)(F)F)n12` (stereo not drawn) [1-021], the “B: Scirpus juncoides” value [1] was 4 (Herbicidal ratio of 70% or more and less than 90%), the “C: Monochoria vaginalis” value [2] was 4 (Herbicidal ratio of 70% or more and less than 90%) and the “A: Echinochloa oryzicola Vasing. (herbicidal effect grade)” value [3] was 5 (Herbicidal ratio of 90% or more (almost completely withered)). For the same molecule, the “e (Triticum aestivum) effect on crop” value [4] was 1 (Herbicidal ratio of 5% or more and less than 20%), the “c (Glycine max) effect on crop” value [5] was 0 (Herbicidal ratio of 5% or less (almost no effect)) and the “d (directly sowed Oryza sativa) effect on crop” value [6] was 3 (Herbicidal ratio of 40% or more and less than 70%). For the same molecule, the “f (Beta vulgaris ssp. vulgaris) effect on crop” value [7] was 5 (Herbicidal ratio of 90% or more (almost completely withered)), the “g (Brassica campestris L.) effect on crop” value [8] was 3 (Herbicidal ratio of 40% or more and less than 70%) and the “b (Zea mays) effect on crop” value [9] was 1 (Herbicidal ratio of 5% or more and less than 20%). The “a: transplanted Oryza sativa” value [10] was 2 (Herbicidal ratio of 20% or more and less than 40%).

`Cc1cc(-c2nnc3c(C(=O)Nc4nnc(C)o4)ccc(C(F)(F)F)n23)no1` [1-022] was tested, and the “B: Scirpus juncoides” value [1] was 2 (Herbicidal ratio of 20% or more and less than 40%), the “C: Monochoria vaginalis” value [2] was 0 (Herbicidal ratio of 5% or less (almost no effect)) and the “A: Echinochloa oryzicola Vasing. (herbicidal effect grade)” value [3] was 2 (Herbicidal ratio of 20% or more and less than 40%). The “e (Triticum aestivum) effect on crop” value [4] was 1 (Herbicidal ratio of 5% or more and less than 20%), the “c (Glycine max) effect on crop” value [5] was 2 (Herbicidal ratio of 20% or more and less than 40%) and the “d (directly sowed Oryza sativa) effect on crop” value [6] was 3 (Herbicidal ratio of 40% or more and less than 70%). For the same molecule, the “f (Beta vulgaris ssp. vulgaris) effect on crop” value [7] was 4 (Herbicidal ratio of 70% or more and less than 90%), the “g (Brassica campestris L.) effect on crop” value [8] was 2 (Herbicidal ratio of 20% or more and less than 40%) and the “b (Zea mays) effect on crop” value [9] was 0 (Herbicidal ratio of 5% or less (almost no effect)). For the same molecule, the “a: transplanted Oryza sativa” value [10] was 0 (Herbicidal ratio of 5% or less (almost no effect)).

With `CCCc1nnc2c(C(=O)Nc3nnc(C)o3)ccc(C(F)(F)F)n12` [1-024] the “B: Scirpus juncoides” value [1] was 2 (Herbicidal ratio of 20% or more and less than 40%), the “C: Monochoria vaginalis” value [2] was 0 (Herbicidal ratio of 5% or less (almost no effect)) and the “A: Echinochloa oryzicola Vasing. (herbicidal effect grade)” value [3] was 5 (Herbicidal ratio of 90% or more (almost completely withered)). The “e (Triticum aestivum) effect on crop” value [4] was 0 (Herbicidal ratio of 5% or less (almost no effect)), the “c (Glycine max) effect on crop” value [5] was 2 (Herbicidal ratio of 20% or more and less than 40%) and the “d (directly sowed Oryza sativa) effect on crop” value [6] was 4 (Herbicidal ratio of 70% or more and less than 90%). The “f (Beta vulgaris ssp. vulgaris) effect on crop” value [7] was 4 (Herbicidal ratio of 70% or more and less than 90%), the “g (Brassica campestris L.) effect on crop” value [8] was 4 (Herbicidal ratio of 70% or more and less than 90%) and the “b (Zea mays) effect on crop” value [9] was 0 (Herbicidal ratio of 5% or less (almost no effect)). The “a: transplanted Oryza sativa” value [10] was 0 (Herbicidal ratio of 5% or less (almost no effect)).

For `Cc1nnc(NC(=O)c2ccc(C(F)(F)F)n3c(C4CCCC4)nnc23)o1` [1-026], the “B: Scirpus juncoides” value [1] was 4 (Herbicidal ratio of 70% or more and less than 90%), the “C: Monochoria vaginalis” value [2] was 4 (Herbicidal ratio of 70% or more and less than 90%) and the “A: Echinochloa oryzicola Vasing. (herbicidal effect grade)” value [3] was 5 (Herbicidal ratio of 90% or more (almost completely withered)). The “e (Triticum aestivum) effect on crop” value [4] was 1 (Herbicidal ratio of 5% or more and less than 20%), the “c (Glycine max) effect on crop” value [5] was 0 (Herbicidal ratio of 5% or less (almost no effect)) and the “d (directly sowed Oryza sativa) effect on crop” value [6] was 3 (Herbicidal ratio of 40% or more and less than 70%). For the same molecule, the “f (Beta vulgaris ssp. vulgaris) effect on crop” value [7] was 5 (Herbicidal ratio of 90% or more (almost completely withered)), the “g (Brassica campestris L.) effect on crop” value [8] was 3 (Herbicidal ratio of 40% or more and less than 70%) and the “b (Zea mays) effect on crop” value [9] was 0 (Herbicidal ratio of 5% or less (almost no effect)). The “a: transplanted Oryza sativa” value [10] was 2 (Herbicidal ratio of 20% or more and less than 40%).

For `CCOCc1nnc2c(C(=O)Nc3nnc(C)o3)ccc(C(F)(F)F)n12` [1-027], the “B: Scirpus juncoides” value [1] was 3 (Herbicidal ratio of 40% or more and less than 70%), the “C: Monochoria vaginalis” value [2] was 4 (Herbicidal ratio of 70% or more and less than 90%) and the “A: Echinochloa oryzicola Vasing. (herbicidal effect grade)” value [3] was 5 (Herbicidal ratio of 90% or more (almost completely withered)). The “e (Triticum aestivum) effect on crop” value [4] was 2 (Herbicidal ratio of 20% or more and less than 40%), the “c (Glycine max) effect on crop” value [5] was 1 (Herbicidal ratio of 5% or more and less than 20%) and the “d (directly sowed Oryza sativa) effect on crop” value [6] was 5 (Herbicidal ratio of 90% or more (almost completely withered)). The “f (Beta vulgaris ssp. vulgaris) effect on crop” value [7] was 5 (Herbicidal ratio of 90% or more (almost completely withered)), the “g (Brassica campestris L.) effect on crop” value [8] was 4 (Herbicidal ratio of 70% or more and less than 90%) and the “b (Zea mays) effect on crop” value [9] was 0 (Herbicidal ratio of 5% or less (almost no effect)). For the same molecule, the “a: transplanted Oryza sativa” value [10] was 1 (Herbicidal ratio of 5% or more and less than 20%).

In the case of `Cc1nnc(NC(=O)c2ccc(C(F)(F)F)n3c(C4=NOC(C)(C)C4)nnc23)o1` [1-029], the “B: Scirpus juncoides” value [1] is reported as 3 (Herbicidal ratio of 40% or more and less than 70%), the “C: Monochoria vaginalis” value [2] is reported as 4 (Herbicidal ratio of 70% or more and less than 90%) and the “A: Echinochloa oryzicola Vasing. (herbicidal effect grade)” value [3] is reported as 5 (Herbicidal ratio of 90% or more (almost completely withered)). For the same molecule, the “e (Triticum aestivum) effect on crop” value [4] was 1 (Herbicidal ratio of 5% or more and less than 20%), the “c (Glycine max) effect on crop” value [5] was 1 (Herbicidal ratio of 5% or more and less than 20%) and the “d (directly sowed Oryza sativa) effect on crop” value [6] was 3 (Herbicidal ratio of 40% or more and less than 70%). The “f (Beta vulgaris ssp. vulgaris) effect on crop” value [7] was 5 (Herbicidal ratio of 90% or more (almost completely withered)), the “g (Brassica campestris L.) effect on crop” value [8] was 1 (Herbicidal ratio of 5% or more and less than 20%) and the “b (Zea mays) effect on crop” value [9] was 3 (Herbicidal ratio of 40% or more and less than 70%). The “a: transplanted Oryza sativa” value [10] was 2 (Herbicidal ratio of 20% or more and less than 40%).

Reference: patent US9708314B2, “Heterocyclic amide compound” (NISSAN CHEMICAL INDUSTRIES, LTD., priority 2013, dated 2017)
